# Results as given in patent US9896487B2, “Amyloidosis-inhibiting polypeptides and their use” (UNIVERSITY OF WASHINGTON THROUGH ITS CENTER FOR …, priority 2013, dated 2018).
# Entries after “also recorded” stand apart in the source; their conditions may differ. Where a SMILES comes first, the peptide text is derived from it. [ ]: non-standard residue; d: D form.
# What was measured:
# Aβ = target: T1, Aβ (Homo sapiens, UniProt P05067); test: Immobilized designs on agarose beads, binding of Aβ from solution (dot blot); conditions: immobilized design; for binding of pre-aggregated, toxic Aβ: Aβ pre-aggregated for 6 hrs
# T1 construct: Aβ (1-42) (AMYD-002; CPC Scientific, Sunnyvale Calif.); purchased CPC Scientific, Sunnyvale Calif; AMYD-002
# T1 sequence (P05067 672-713 limits assumed): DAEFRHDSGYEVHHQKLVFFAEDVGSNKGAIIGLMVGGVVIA
# TTR = target: T2, TTR (Homo sapiens, UniProt P02766); test: Immobilized designs on agarose beads, binding of TTR from solution (dot blot); conditions: immobilized design; for binding of pre-incubated, toxic oligomer-containing TTR: TTR pre-incubated at low pH for 24 hrs
# T2 construct: purchased Lee Biosolutions, St. Louis Mo; 496-11
# [1] = Solubility and solution behaviour of the designs; conditions: for solubility: aqueous solution-phase experiments
# transthyretin (TTR) = target: T3, transthyretin (TTR) (Homo sapiens, UniProt P02766); test: TTR fibrillization assay (Congo red binding); type: biochemical; conditions: for inhibition of the remaining TTR aggregation: peptide added to 24-hour pre-incubated, toxic TTR, versus aggregation in the absence of inhibitor
# T3 construct: purchased Lee Biosolutions, St. Louis Mo; 496-11
# Protocol: Aliqouts of transthyretin (TTR) (496-11; Lee Biosolutions, St. Louis Mo.) were made from a 1 mg/mL solution 20 mM ammonium carbonate, pH 8. Aliquots were lyophilized and stored at −18° C. Prior to use, TTR was dissolved to 80 μM (monomer) in acetate buffer (50 mM potassium acetate, 100 mM potassium chloride pH 4.5) and sonicated for 10 minutes. The stock solution was centrifuged before use. Peptide designs were added to stock TTR to a final TTR concentration of 40 μM (monomer) in acetate buffer (pH 4.5) in 500 μL microcentrifuge tubes, which were incubated at 37° C. Periodically, samples were collected from the TTR:peptide mixture by briefly centrifuging, and then carefully pipetting the solution up and down prior to withdrawing a 10 μL sample and diluting it in 190 μL of 10 μM Congo red in an individual well of a 96-well assay plate. Each measurement was performed in triplicate. Absorbance measurements were taken at 477 and 540 nm. Relative Congo red binding was determined using the method of Klunk et al. using the relationship: rCb=(Abs540/25,295)−(Abs477/46,306) (40). All datapoints were normalized to the value recorded for TTR alone pH 4.5 at 48 hrs.
# (§1) The “control” designs were tested as general inhibitors against the Amyloid β 1-42 peptide (Aβ) (panel A), the islet amylin polypeptide (IAPP, or amylin, which is implicated in type 2 diabetes) (panel B), and transthyretin (TTR) (panel C) amyloidosis (FIG. 6). […] As described in Example 1, a Thioflavin T (ThT) fluorescence assay was used to monitor Aβ and IAPP aggregation. A Congo Red dye-binding assay was used to monitor TTR fibrillization. For inhibition against Aβ, peptides were co-incubated at 4-fold excess of Aβ at RT in neutral pH buffer containing ThT. Note that the results for α1 differ somewhat from what are included in Example 1 because the assay conditions were altered slightly to slow the process down to favor oligomerization of Aβ (rather than fibril elongation) by lowering the temperature to 25° C. […] For inhibition against IAPP, peptides were co-incubated at 8-fold excess of IAPP at 37° C. in neutral pH buffer containing 20 μM ThT. For inhibition against TTR, peptides were co-incubated at 10-fold excess of monomeric TTR.
# Aβ (1-42) = target: T4, Aβ (1-42) (Homo sapiens, UniProt P05067); test: Aβ fibrillization assay (Thioflavin T fluorescence); type: biochemical; conditions: for time of aggregation at which the inhibitory effect is exerted: 10:1 excess, 37° C., ThT; for inhibition of Aβ fibril formation: co-incubated in 10:1 excess (100 μM peptide, 10 μM Aβ), pH 7.4, 37° C., measured at 22 hours; for inhibition of aggregation of pre-aggregated, toxic Aβ: designs added to Aβ pre-aggregated for 6 hrs, versus aggregation in the absence of inhibitor
# T4 construct: Aβ (1-42) (AMYD-002; CPC Scientific, Sunnyvale Calif.); purchased CPC Scientific, Sunnyvale Calif; AMYD-002
# T4 sequence (P05067 672-713 limits assumed): as above
# Protocol: Similarly, the designs were co-incubated (in 10:1 excess) with Aβ at pH 7.4 and followed fibril formation with ThT fluorescence changes upon binding at 37° C. (FIG. 2c). As observed for TTR, both α1 and α3 inhibited aggregation. Again α1 was more efficient, inhibiting approximately 87% of fibril formation compared with 66% for α3, when measured after the reaction stabilized at 22 hours. […] The 37° C. studies are reported here, though, for comparison with TTR, which aggregates very slowly at 25° C.
# Aβ (1-42) (AMYD-002; CPC Scientific, Sunnyvale Calif.) was stored as 2 mg/mL stock in hexafluoroisopropanol (HFIP) at −18° C. Prior to use, the stock solution was thawed, an aliquot taken and the HFIP was removed under a gentle stream of air. A 1 mg/mL stock solution of Aβ was made in 5 mM NaOH and sonicated for 5-10 minutes. The stock was filtered through a 0.22 μm cellulose filter (Costar Spin-X; Corning Inc, NY). The concentration of stock Aβ was determined by first diluting the stock 1:50 in 5 mM NaOH then taking the absorbance at 220 nm (ε220=50,000 cm^−1 M^−1). Aliquots of the NaOH stock were placed in separate wells of a 96-well black-walled fluorescence plate (Nunc) and immediately diluted in PBS (11 mM phosphate) containing 20 μM Thioflavin T (ThT) to give 150 μL of 10 μM Aβ at pH 7.5. Peptide inhibitors were added directly to 10 μM Aβ samples from concentrated aqueous stocks. Covered plates were incubated at 37° C. and were periodically removed for fluorescence measurements. ThT fluorescence was measured at λex=450 nm and λem=480 nm using a Tecan Safire2 plate reader.
# as §1
# [2] = tested on: Aβ, IAPP and TTR amyloidosis / toxic oligomer; test: Inhibitory activity summary: inhibition of aggregation and/or binding of toxic oligomer; type: biochemical
# Protocol: In addition, FIG. 5 contains ‘control’ designs aimed at reverse engineering the α1 design, which is presented in more detail in Example 3. […] These designs are both linear and cyclic peptides designed to be hairpins.
# The “control” designs were tested as general inhibitors against the Amyloid β 1-42 peptide (Aβ) (panel A), the islet amylin polypeptide (IAPP, or amylin, which is implicated in type 2 diabetes) (panel B), and transthyretin (TTR) (panel C) amyloidosis (FIG. 6). […] As described in Example 1, a Thioflavin T (ThT) fluorescence assay was used to monitor Aβ and IAPP aggregation. A Congo Red dye-binding assay was used to monitor TTR fibrillization. For inhibition against Aβ, peptides were co-incubated at 4-fold excess of Aβ at RT in neutral pH buffer containing ThT. […] For inhibition against IAPP, peptides were co-incubated at 8-fold excess of IAPP at 37° C. in neutral pH buffer containing 20 μM ThT. For inhibition against TTR, peptides were co-incubated at 10-fold excess of monomeric TTR.
# The data in FIG. 6 were normalized to ThT fluorescence of the negative (uninhibited) control (black squares). Inhibition traces are ordered vertically according to sequence identity to α1 (see Table 1). Sigmoidal fits to data are included. Controls are identical throughout a single panel, and traces for inhibition samples are colored while the uninhibited aggregation profiles are in black.
# [3] = tested on: human neuroblastoma cell line SH-SY5Y
# Protocol: The toxicity of aggregates was tested against the human neuroblastoma cell line SH-SY5Y in an MTT cell viability assay. The human neuroblastoma cell line SH-SY5Y (CRL-226; American Type Culture Collection) was grown in 75 cm^2 flasks in 1:1 DMEM/F12 (CellGro) supplemented with 10% FBS and 50 units/mL penicillin/50 μg/mL streptomycin (complete media), and incubated at 37° C. in humidified 5% CO2 environment. Cells were routinely passaged when they reached 90% confluence by addition of trypsin (Gibco) and replated at a ratio of 1:10 in complete media. Cells were plated to a density of 25,000 cells/well in a 96-well plate (100 μL/well) and allowed to attach overnight. The cell assay was performed as described by Reixach et al. (41).
compound,measurement,setting,value
CSCC[C@H](NC(=O)[C@@H](CCCCN)NC(=O)[C@H](CS)NC(=O)[C@@H](CC(N)=O)NC(=O)[C@H](CCSC)NC(=O)[C@H](NC(=O)[C@H](Cc1c[nH]c2ccccc12)NC(=O)CNC(=O)[C@H](Cc1ccc(O)cc1)NC(=O)[C@H](Cc1ccc(O)cc1)NC(=O)[C@H](CCC(=O)O)NC(=O)[C@H](CC(N)=O)NC(=O)[C@H](CCSC)NC(=O)[C@@H](Cc1c[nH]c2ccccc12)NC(=O)[C@H](Cc1ccccc1)NC(=O)[C@@H](Cc1ccc(O)cc1)NC(=O)[C@H](CC(N)=O)NC(=O)[C@@H](CCSC)NC(=O)[C@H](CCC(=O)O)NC(=O)CNC(=O)[C@H](CCCNC(=N)N)NC(C)=O)[C@H](C)O)C(=O)NCC(=O)N[C@@H](CCCNC(=N)N)C(N)=O [α2] (Ac-RGE[dM]N[dY]F[dW]MNEYYGW[dT]M[dN]C[dK]MGR-NH2),"binding of pre-aggregated, toxic Aβ",Aβ,"bound pre-aggregated, toxic Aβ preferentially"
same,"binding of pre-incubated, toxic oligomer-containing TTR",TTR,to a greater extent than the rc and β controls; also recorded: more strongly bound
same,solubility,[1],sparingly soluble; also recorded: not soluble enough for NMR
CSCC[C@@H]1NC(=O)[C@@H]([C@H](C)O)NC(=O)[C@H](Cc2c[nH]c3ccccc23)NC(=O)[C@@H](C)NC(=O)[C@H](C)NC(=O)[C@H](C)NC(=O)[C@H](C)NC(=O)[C@H](CC(N)=O)NC(=O)[C@H]([C@@H](C)O)NC(=O)[C@@H](Cc2c[nH]c3ccccc23)NC(=O)[C@H](CO)NC(=O)[C@@H](CCCCN)NC(=O)[C@H](CCC(N)=O)NC(=O)[C@@H](CCC(N)=O)NC(=O)[C@H](CCCCN)NC(=O)[C@H](CC(N)=O)NC(=O)[C@H]2CCCN2C(=O)[C@H](CCC(=O)O)NC(=O)[C@@H](CCCCN)NC(=O)[C@H](CC(C)C)NC(=O)[C@@H](CCC(N)=O)NC1=O [α3] (cyclo([dQ]Q[dK]S[dW]TNAAA[dA]W[dT]M[dQ]L[dK]E[dP]NK)),"binding of pre-aggregated, toxic Aβ",Aβ,"bound pre-aggregated, toxic Aβ preferentially"
same,"binding of pre-incubated, toxic oligomer-containing TTR",TTR,to a greater extent than the rc and β controls; also recorded: more strongly bound
same,inhibition of the remaining TTR aggregation,transthyretin (TTR),77%
same,inhibition at 800 µM,"transthyretin (TTR); peptide co-incubated in excess 20:1 (800 μM) with 40 μM TTR monomer, pH 4.5, 37° C., after 48 hours, relative to TTR alone at low pH, read-out: percentage inhibition of TTR aggregation",56%
same,time of aggregation at which the inhibitory effect is exerted,Aβ (1-42),approximately 6 hrs
same,inhibition of Aβ fibril formation,Aβ (1-42),66%
same,"inhibition of aggregation of pre-aggregated, toxic Aβ",Aβ (1-42),96%
same,association state in solution,"[1]; NMR conditions: very high sample concentrations, 50 mM potassium phosphate, 100 mM KCl pH 5.8",well-behaved monomers
same,solubility,[1],soluble
Ac-RGEmNiSwMNEYSGWtMnLkMGR-NH2 [peptide #1],Inhibits Aggregation and/or binds oligomer?,[2],demonstrate activity and yes
same,"binding of pre-aggregated, toxic Aβ",Aβ; listed as α1,"preferentially bound the pre-aggregated, toxic form of Aβ"
same,"binding of fresh, monomeric Aβ",Aβ; fresh (0 h) Aβ,did not bind
same,"binding of native, tetrameric TTR",TTR,did not bind
same,"binding of pre-incubated, toxic oligomer-containing TTR",TTR; listed as α1,to a greater extent than the rc and β controls; also recorded: more strongly bound
same,inhibition of the remaining TTR aggregation,transthyretin (TTR),81%
same,percentage inhibition of TTR aggregation,"transthyretin (TTR); peptide co-incubated in excess 20:1 (800 μM) with 40 μM TTR monomer, pH 4.5, 37° C., after 48 hours, relative to TTR alone at low pH",72%
same,inhibition of Aβ aggregation at 4-fold excess,"Aβ (1-42); 4-fold excess of peptide, 25° C. (RT), neutral pH buffer with ThT, listed as α1",essentially completely abolishes aggregation; also recorded: quenches Aβ aggregation
same,time of aggregation at which the inhibitory effect is exerted,Aβ (1-42),approximately 6 hrs
same,inhibition of Aβ fibril formation,Aβ (1-42),approximately 87%
same,"inhibition of aggregation of pre-aggregated, toxic Aβ",Aβ (1-42),97%
Aβ: β-amyloid peptide 1-42 (AMYD-002; CPC Scientific),viability of treated cells,[3],less than 50%
